Source: the CheMixHub viscosity set

Test: xn = mol fraction of the nth substance listed
Details: 101 kPa

CCCOC(=O)c1ccccc1 + CCCCCCC
viscosity [mPa·s]
Details | x1 = 0.099 | x1 = 0.1965 | x1 = 0.2952 | x1 = 0.395 | x1 = 0.4959 | x1 = 0.5924 | x1 = 0.6991 | x1 = 0.7981 | x1 = 0.8973
298.15 K | 0.444 | 0.516 | 0.603 | 0.707 | 0.842 | 1.017 | 1.254 | 1.526 | 1.853
308.15 K | 0.399 | 0.466 | 0.531 | 0.614 | 0.734 | 0.874 | 1.051 | 1.248 | 1.525
318.15 K | 0.358 | 0.408 | 0.472 | 0.55 | 0.638 | 0.754 | 0.897 | 1.064 | 1.266

CCCOC(=O)c1ccccc1 + CCCCCCCC
Details | viscosity [mPa·s]
298.15 K, x2 = 0.0773 | 2.082
298.15 K, x2 = 0.1026 | 1.998
298.15 K, x2 = 0.1613 | 1.792
298.15 K, x2 = 0.2565 | 1.512
298.15 K, x2 = 0.3067 | 1.381
298.15 K, x2 = 0.3482 | 1.286
298.15 K, x2 = 0.3951 | 1.187
298.15 K, x2 = 0.4424 | 1.094
298.15 K, x2 = 0.4882 | 1.018
298.15 K, x2 = 0.5342 | 0.948
298.15 K, x2 = 0.5836 | 0.882
298.15 K, x2 = 0.6253 | 0.828
298.15 K, x2 = 0.6796 | 0.769
298.15 K, x2 = 0.727 | 0.723
298.15 K, x2 = 0.8351 | 0.633
298.15 K, x2 = 0.9429 | 0.558
308.15 K, x2 = 0.0816 | 1.645
308.15 K, x2 = 0.13 | 1.512
308.15 K, x2 = 0.1656 | 1.421
308.15 K, x2 = 0.2095 | 1.318
308.15 K, x2 = 0.2541 | 1.225
308.15 K, x2 = 0.2993 | 1.136
308.15 K, x2 = 0.3584 | 1.034
308.15 K, x2 = 0.3968 | 0.972
308.15 K, x2 = 0.4503 | 0.897
308.15 K, x2 = 0.4892 | 0.846
308.15 K, x2 = 0.5375 | 0.79
308.15 K, x2 = 0.5822 | 0.743
308.15 K, x2 = 0.6192 | 0.707
308.15 K, x2 = 0.6824 | 0.653
308.15 K, x2 = 0.7188 | 0.625
308.15 K, x2 = 0.7692 | 0.588
308.15 K, x2 = 0.8292 | 0.55
308.15 K, x2 = 0.8674 | 0.527
308.15 K, x2 = 0.9303 | 0.497
318.15 K, x2 = 0.0629 | 1.422
318.15 K, x2 = 0.09 | 1.361
318.15 K, x2 = 0.1362 | 1.261
318.15 K, x2 = 0.1878 | 1.163
318.15 K, x2 = 0.233 | 1.081
318.15 K, x2 = 0.2525 | 1.047
318.15 K, x2 = 0.33 | 0.926
318.15 K, x2 = 0.3813 | 0.856
318.15 K, x2 = 0.4267 | 0.801
318.15 K, x2 = 0.4776 | 0.744
318.15 K, x2 = 0.5373 | 0.686
318.15 K, x2 = 0.5751 | 0.653
318.15 K, x2 = 0.6208 | 0.616
318.15 K, x2 = 0.671 | 0.581
318.15 K, x2 = 0.7073 | 0.556
318.15 K, x2 = 0.7545 | 0.53
318.15 K, x2 = 0.8156 | 0.497
318.15 K, x2 = 0.8667 | 0.472
318.15 K, x2 = 0.9127 | 0.453
